Measurements from EP0551953A2, “17-(Pyridazine-N-oxide)-substituted steroidal compounds active on the cardiovascular system” (ZAMBON GROUP S.p.A., priority 1992, dated 1993).
Like-named read-outs stand apart in the source and are kept apart here.

Tested on: alpha₃ isoform of rat (Na⁺+K⁺)-ATPase
Assay: Displacement of [3H]-ouabain, alpha3 isoform, rat brain preparation
Type: binding
Description: The activity of the compounds of formula II has been evaluated with the binding test on the alpha₁ and alpha₃ isoforms of rat (Na⁺+K⁺)-ATPase in rat kidney and rat brain, according to the method described by Noel F. et al., Biochemical Pharmacology, 40(12), pp 2611-2616, (1990) (see Example 2).
Evaluation of the interaction with the alpha₁ and alpha₃ isoforms of rat (Na⁺+K⁺)-ATPase
The method of Noel F. et al., Biochemical Pharmacology, 40(12), pp. 2611-2616, (1990) was used to evaluate the displacement of [³H]-ouabain in preparations of rat kidney and rat brain, containing various concentrations of nerifolin, 3beta-(alpha-L-tevetopyranosyloxy)-14-hydroxy-17beta-(4-pyridazil)-5beta,14beta-androstane (compound R), compound 5 and compound 6 and the corresponding genins, respectively, digitoxygenin, 3beta,14-dihydroxy-17beta-(4-pyridazil)-5beta,14beta-androstane (genin 1), 3beta,14-dihydroxy-17beta-(4-pyridazinyl-2-N-oxide)-5beta,14beta-androstane (genin 2) and 3beta,14-dihydroxy-17beta-(4-pyridazinyl-1-N-oxide)-5beta,14beta-androstane (genin 3).

[1] = selectivity index, alpha₁ (rat kidney) versus alpha₃ (rat brain)

SMILES | K₁(alpha₁)/K₁(alpha₃) [1] | K₁(alpha₁)/K₁(alpha₃)
CO[C@H]1[C@H](O)[C@H](O[C@H]2CC[C@@]3(C)[C@H](CC[C@@H]4[C@@H]3CC[C@]3(C)[C@@H](c5cc[n+]([O-])nc5)CC[C@]43O)C2)O[C@@H](C)[C@@H]1O [Compound 6, 3beta-(alfa-L-tevetopyranosyloxy)-14-hydroxy-17beta-(4-pyridazinyl-1-N-oxide)-5beta,14beta-androstane] | ≧1000 | 
C[C@]12CC[C@H](O)C[C@H]1CC[C@@H]1[C@@H]2CC[C@]2(C)[C@@H](c3ccnnc3)CC[C@]12O [Genin 1, 3beta,14-dihydroxy-17beta-(4-pyridazil)-5beta,14beta-androstane] | 96 | 
C[C@]12CC[C@H](O)C[C@H]1CC[C@@H]1[C@@H]2CC[C@]2(C)[C@@H](C3=CC(=O)OC3)CC[C@]12O [Digitoxygenin, digitoxygenin] |  | 37
CO[C@H]1[C@H](O)[C@H](O[C@H]2CC[C@@]3(C)[C@H](CC[C@@H]4[C@@H]3CC[C@]3(C)[C@@H](C5=CC(=O)OC5)CC[C@]43O)C2)O[C@@H](C)[C@@H]1O [Nerifolin, nerifolin] | 90 | 
CO[C@H]1[C@H](O)[C@H](O[C@H]2CC[C@@]3(C)[C@H](CC[C@@H]4[C@@H]3CC[C@]3(C)[C@@H](c5ccnnc5)CC[C@]43O)C2)O[C@@H](C)[C@@H]1O [Compound R, 3beta-(alpha-L-tevetopyranosyloxy)-14-hydroxy-17beta-(4-pyridazil)-5beta,14beta-androstane] | 63 | 
CO[C@H]1[C@H](O)[C@H](O[C@H]2CC[C@@]3(C)[C@H](CC[C@@H]4[C@@H]3CC[C@]3(C)[C@@H](c5ccn[n+]([O-])c5)CC[C@]43O)C2)O[C@@H](C)[C@@H]1O [Compound 5, 3beta-(alfa-L-tevetopyranosyloxy)-14-hydroxy-17beta-(4-pyridazinyl-2-N-oxide)-5beta,14beta-androstane] | ≧1258 | 
